Measurements reported in paper PMC6615598, “Novel antibiotics effective against gram-positive and -negative multi-resistant bacteria with limited resistance” (PLoS Biology, 2019).
“And” between values parts separate entries of the source, which are not always exact repeats. Equal entries are not always repeated. Where two headings read alike, the source gives them in different places. Starred links: 1 amine or outer side, 2 acyl side, 3 side chain; linkers in the order of their positions; H or OH if unused. Non-standard residues stand in square brackets, D forms with d. Residues, ends and D or L forms follow the SMILES beside them. azaβ3(1Nal) = O=C(CN(Cc1cccc2ccccc12)N[*:1])[*:2]

What was measured:
P. aeruginosa LESB58 = test: Cutaneous abscess mouse model (CFU); type: in vivo, mice
Description: For the cutaneous abscess model, the mice were randomly divided into 5 sets. The mice were anesthetized with isoflurane, their dorsal fur shaved, and their skin disinfected with 70% ethanol. An overnight culture of S. aureus MRSA or P. aeruginosa LESB58 was washed with 0.9% NaCl, and then a subcutaneous injection of 2 × 10^9 CFUs and an equal amount of sterile Cytodex microcarrier beads (20 mg.ml^−1, Sigma) for S. aureus MRSA, or 10^8 CFUs for P. aeruginosa were injected into the shaved area. […] Mice were monitored every day and then euthanized with CO2 on Day 6 or on Day 3. Abscesses were excised, measured, and homogenized in PBS using an Ultra-Turax. Serial dilutions of the samples were plated on BHI (MRSA) or 2YT medium (LESB58) plates and then incubated overnight at 37°C. Afterward, the CFUs were counted and expressed as log CFU/ml. Dermonecrosis areas were calculated according to the formula π × L × W. ATP levels were determined with an ATP assay kit (Promega) according to manufacturer instructions on sets of 5 colonies harboring the SCV phenotype, and sets of 5 colonies harboring a normal phenotype, after growth on BHI plates.

MRSA [1] = test: In vivo resistance: kidney extracts plated on plates containing 1- to 8-fold peptide MIC (severe sepsis); type: cell-based, S. aureus; settings: kidneys at day 7 after repeated treatments, plates with drug at 2-fold MIC
Description: For 15 d in MHB, MICs were determined daily for each pseudopeptide and their antibiotic controls. This was done using cells from the well in which the compound concentration was one-half of the MIC (1/2MIC). For each compound, the 1/2MIC well from the previous day’s MIC assay plate was re-suspended and the bacteria grown to a density of about 10^8 cells ml−1. The suspension was diluted in MHB or CAMHB (10^6 cells/ml) and then used to determine the MIC of the same compound determined by micro broth dilution. All MIC measurements were performed in duplicate. Aliquots of the 5 × 10^4 cell/ml dilutions for each 1/2MIC well were periodically plated on MHB and incubated at 35°C for 18 h to verify cell density by colony counts and for visual inspection of colony phenotypes. To control compound stability, peptide solution MICs were determined during and at the end of the 15 d and were compared to cells unexposed to antibiotics. In vivo resistance was also assessed in treated mice (1.5 mg.kg^−1) for 4 d (sepsis) or 6 d (skin abscesses). […] For severe sepsis and subcutaneous abscesses, in vivo resistance was determined by plating aliquots of crude kidney extracts or abscesses on plates containing 1-, 2-, 4-, or 8-fold the peptide MICs 7 or 3 d post infections, respectively.

MRSA [2] = test: Severe sepsis mouse model, survival; type: in vivo; settings: mice, approximately 2 × 10^9 CFUs MRSA IV; 4 IV doses of 0.5 mg.kg^−1 at 2, 24, 48, 72 h
From the text: Tolerance and toxicity studies were done on male Swiss mice (CD-1 Crl: CD-1 [ICR] IGS; Charles River). These were 7 to 10 weeks old and weighed an average of 37.2 g. All experimental protocols were approved by the Adaptive Therapeutics Animal Care and Use Committee (APAFiS #4508-2016031l15541258 v2). For the sepsis model, we used female Swiss mice (Janvier Labs), 6 to 8 weeks old and weighing approximately 30 g. Experiments were monitored in the ARCHE-BIOSIT animal lab in Rennes, in biological duplicate. We used Groups of 5 mice for the mild and the severe sepsis models with MRSA. Mice were IV inoculated with 150 μl of MRSA suspensions in 0.9% NaCl containing approximately 5 × 10^8 CFUs for the “mild” sepsis and approximately 2 × 10^9 CFUs for the “severe” sepsis, respectively. […] Mice survival was monitored for 4 d (“severe” sepsis) or 14 d (“mild” sepsis), and the statistical significance of difference(s) between the groups was evaluated using the Wilcoxon test. P < 0.05 was considered significant. Two weeks (“mild” sepsis) or 4 d (“severe” sepsis) after inoculation, mice were euthanized with CO2.

[3] = parameters: species or system mice; settings: mouse, in vivo, iv
Description: Control embryos were injected with 1 nl of water. […] Each animal was checked for mortality twice per day. […] RBCs were washed until the supernatant was clear. […] RBCs in PBS were a negative control without hemolysis.
Supplementary file pbio.3000337.s011.docx: S5 Table Mice toxicity assays. Clinical signs observed on Day 1 after IV administration of each of the peptide and pseudopeptides in sets of 3 mice. Not observed symptoms are marked with a dash. (DOCX) Click here for additional data file.

In the case of `CC(C)[C@@H]1NC(=O)[C@H](CCCNC(=N)N)NC(=O)[C@H](CCCNC(=N)N)NC(=O)CN(Cc2cccc3ccccc23)NC(=O)[C@H](Cc2ccccc2)NC(=O)CN(Cc2cccc3ccccc23)NC(=O)[C@H](CCCCN)NC1=O` [Pep19] (cyclo([azaβ3(1Nal)]F[azaβ3(1Nal)]RRVK)), the “CFU counts per abscess” value (P. aeruginosa LESB58; cutaneous abscesses induced by P. aeruginosa in mice, repeated doses post-infection, 30mg/kg, second data set, individual values) is reported as 5.3 log Cfu/ml and 4.34 log Cfu/ml and 3.16 log Cfu/ml and 3.11 log Cfu/ml and 2.85 log Cfu/ml and 6.21 log Cfu/ml and 4.95 log Cfu/ml, the “Reduction of the bacterial load of abscess” value (P. aeruginosa LESB58; mice, P. aeruginosa LESB58, 30 mg.kg^−1 subcutaneous twice a day for 2 d, day 3) is reported as roughly 50 fold and the “Clones with increased resistance from kidneys” value (MRSA [1]) is reported as “no clones with increased resistances were detected”. For the same compound, the “Survival in severe sepsis” value (MRSA [2]) was “protected the infected animals”, the “Abdominal breathing, mice with sign” value [3] was “-” and the “Half-closed eyes, mice with sign” value [3] was “-”. The “Hindlimbs widespread, mice with sign” value [3] was 1, the “Piloerection, mice with sign” value [3] was 3 and the “Abdominal breathing, mice with sign” value ([3]; 2 mg/kg) was “-”. For the same compound, the “Decreased grasping reflex, mice with sign” value ([3]; 2 mg/kg) was “-”, the “Dyspnea, mice with sign” value ([3]; 2 mg/kg) was “-” and the “Half-closed eyes, mice with sign” value ([3]; 2 mg/kg) was “-”. The “Hunched posture, mice with sign” value ([3]; 2 mg/kg) was 1, the “Hypoactivity, mice with sign” value ([3]; 2 mg/kg) was 1 and the “Hypotonia, mice with sign” value ([3]; 2 mg/kg) was “-”. The “Piloerection, mice with sign” value ([3]; 2 mg/kg) was 3, the “Red-colored ears, mice with sign” value ([3]; 2 mg/kg) was “-” and the “Red-colored eyes, mice with sign” value ([3]; 2 mg/kg) was “-”. The “Staggering gait, mice with sign” value ([3]; 2 mg/kg) was 1, the “Sudden startle, mice with sign” value ([3]; 2 mg/kg) was “-” and the “Decreased grasping reflex, mice with sign” value ([3]; […]) was “-”. For the same compound, the “Half-closed eyes, mice with sign” value ([3]; […]) was “-”, the “Hypotonia, mice with sign” value ([3]; […]) was “-” and the “Piloerection, mice with sign” value ([3]; […]) was 3. For the same compound, the “Red-colored ears, mice with sign” value ([3]; […]) was “-” and the “Red-colored eyes, mice with sign” value ([3]; […]) was “-”.
